We go through 14 molecules from patent publication US20250059231A1, “Protease inhibitors” (priority 2021, published 2025).

Structures are written as SMILES. Where two headings read alike, the source gives them in different places. Where a SMILES comes first, the peptide text is derived from it. [ ]: non-standard residue; d: D form. The star is where a group is joined. Palmitoyl = CCCCCCCCCCCCCCCC(=O)*; hPhe = N[C@@H](CCc1ccccc1)C(=O)O; β3hK = NCCCC[C@H](N)CC(=O)O

One assay deals with T1, ZIKA protease (Zika virus, UniProt Q32ZE1).
T1 construct: a trypsin-like serine protease domain in the N-terminal region of the flaviviral NS3 proteins
T1 sequence (Q32ZE1 1499-1676): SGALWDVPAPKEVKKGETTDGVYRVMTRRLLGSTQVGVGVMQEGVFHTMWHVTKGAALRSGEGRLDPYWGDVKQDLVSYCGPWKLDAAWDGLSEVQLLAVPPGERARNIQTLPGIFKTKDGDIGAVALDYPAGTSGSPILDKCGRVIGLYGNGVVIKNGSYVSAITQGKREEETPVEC
T1 sequence (Q32ZE1 1421-1460): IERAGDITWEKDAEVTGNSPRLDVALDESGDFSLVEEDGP
Put plainly: biochemical. The following applies: for inhibition at 1 µM / inhibition at 50 µM: read-out: inhibition of ZIKV. As for the experimental part: (§1) By catalytic activity of the protease, the cleaved substrate results in increased fluorescence that can be monitored using a BMG Labtech Fluostar OPTIMA Microtiter fluorescence plate reader (excitation wavelength of 320 nm and a monitored emission wavelength of 405 nm). Dilutions were made starting from 10 mM stock solutions in DMSO and final concentrations were measured in triplicates. The inhibitors were preincubated for 15 min with DENV protease (100 nM) in the assay buffer (50 mM Tris-HCl pH 9.0, ethylene glycol (10% v/v), and 0.0016% Brij 58). The enzymatic reaction was initiated by the addition of the FRET substrate (final concentration 50 μM) to obtain a final assay volume of 100 μL per well. The enzymatic activity was monitored for 15 min and determined as a slope of relative fluorescence units per second (RFU/s) for each concentration. The mean of the triplicates were plotted against the corresponding concentration in CDDVault to determine the IC50-values. Analogous procedures were used to determine the inhibitory potency on WNV (Kühl et al., J. Med. Chem. 2020, 63 (15): 8179-8197) and ZIKA protease (Nitsche et al., ACS Med. Chem. Lett. 2019 Feb. 14; 10 (2): 168-174). For selectivity screening of active candidates, similar biochemical assays with human serine proteases trypsin (Weigel et al., J. Med. Chem. 2015, 58 (19), 7719-7733.) and/or thrombin (Nitsche et al., J. Med. Chem. 2013, 56 (21), 8389-8403) were used.

A further assay has as its target T2, DENV protease (Dengue virus type 2, UniProt P29990).
T2 construct: The virus-encoded dengue protease comprises the amino-terminal 180 amino acids of NS3 (NS3pro) of the polyprotein
The experiment in a line: biochemical. Conditions: read-out: inhibition of DENV. The method, boiled down:
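DENV protease (100 nM) was pre-incubated 15 min with inhibitors in 50 mM Tris-HCl pH 9.0, 10% ethylene glycol, 0.0016% Brij 58. FRET substrate (50 μM final) started the reaction, monitored 15 min as RFU/s slope. IC50 came from triplicate means versus concentration.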

The target in a further assay is human Thrombin (Homo sapiens, UniProt P00734). The experiment in a line: Selectivity screening, human serine protease thrombin. It counts as biochemical. The following applies: read-out: inhibition of human Thrombin. Here is the method: as §1
Assay [1] concerns the target T3, WNV protease (West Nile virus, UniProt P06935).
T3 construct: a trypsin-like serine protease domain in the N-terminal region of the flaviviral NS3 proteins
Put plainly: WNV protease assay (analogous procedure). It counts as biochemical. Conditions: read-out: IC50 for WNNV.

The target in a further assay is human Trypsin (Homo sapiens, UniProt P07477). The experiment in a line: Selectivity screening, human serine protease trypsin. The following applies: read-out: inhibition of human Trypsin. It is filed as biochemical. As for the experimental part: as §1
The target of assay [2] is T3, WNV protease. The experiment in a line: WNV protease assay (analogous procedure). It is filed as biochemical. Conditions: at 50 μM. As for the experimental part:
as §1

T3 sequence (P06935 1424-1463): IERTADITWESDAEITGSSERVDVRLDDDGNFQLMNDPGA
T3 sequence (P06935 1502-1679): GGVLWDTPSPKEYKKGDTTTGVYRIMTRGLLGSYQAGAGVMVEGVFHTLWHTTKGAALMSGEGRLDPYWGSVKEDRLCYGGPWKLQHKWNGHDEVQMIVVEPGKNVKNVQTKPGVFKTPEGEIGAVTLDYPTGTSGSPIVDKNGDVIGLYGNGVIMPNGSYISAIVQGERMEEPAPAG
T2 sequence (P29990 1398-1437): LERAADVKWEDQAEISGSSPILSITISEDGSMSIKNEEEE
T2 sequence (P29990 1476-1653): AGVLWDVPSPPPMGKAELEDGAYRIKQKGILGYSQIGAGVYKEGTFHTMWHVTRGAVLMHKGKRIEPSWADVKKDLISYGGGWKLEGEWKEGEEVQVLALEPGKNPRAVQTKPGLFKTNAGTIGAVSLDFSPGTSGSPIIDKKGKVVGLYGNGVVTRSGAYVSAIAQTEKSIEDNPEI

Molecule `CCCCCCCCCCCCCCCC(=O)N[C@@H](CCCNC(=N)N)C(=O)N[C@@H](C)C(=O)N[C@@H](CCc1ccccc1)C(N)=O` [compound 51] (Palmitoyl-Arg-Ala-[hPhe]-NH2) registered an IC50 on ZIKA protease of at most 25 µM. The inhibition at 1 µM is at least 10% at ZIKA protease (at 1 μM) and at least 20% on DENV protease (at 1 μM). In addition, the inhibition at 50 µM on ZIKA protease (at 50 μM) was at least 65%; at DENV protease, at least 25%. The 50% effective concentration (EC50) with ZIKV was at most 10 µM; with West Nile virus it was at most 25 µM.
On ZIKA protease, `CCCCCCCCCCCCCCCC(=O)N[C@@H](CCCNC(=N)N)C(=O)N[C@@H](CCC(N)=O)C(=O)N[C@@H](CCc1ccccc1)C(N)=O` [compound 53] (Palmitoyl-Arg-Gln-[hPhe]-NH2) displayed an IC50 of at most 25 µM. The inhibition at 50 µM at ZIKA protease (at 50 μM) is at least 65%; on DENV protease, at least 25%. The EC50 in the assay with ZIKV is at most 10 µM; in the assay on West Nile virus, at most 25 µM.
`CCCCCCCCCCCCCCCC(=O)N[C@@H](CCCNC(=N)N)C(=O)N[C@@H](CC(N)=O)C(=O)N[C@@H](Cc1ccccc1)C(N)=O` [compound 50] (Palmitoyl-Arg-Asn-Phe-NH2) came in with a concentration for half-maximal inhibition (IC50) on ZIKA protease of at most 25 µM. The inhibition at 1 µM is at least 10% on ZIKA protease (at 1 μM) and at least 20% on DENV protease (at 1 μM). The inhibition at 50 µM at ZIKA protease (at 50 μM) is at least 65%; on DENV protease, at least 25%. The EC50 in the assay on ZIKV was at most 10 µM; in the assay on West Nile virus, at most 25 µM.
Take `CCCCCCCCCCCCCCCC(=O)N[C@@H](CCCCN)C(=O)N[C@@H](C)C(=O)N[C@@H](C)C(=O)N[C@H](CCCCN)C(=O)c1ccccc1` [compound 136]: the half-maximal inhibitory concentration (IC50) is at most 25 µM at ZIKA protease and at most 40 µM at WNV protease [1]. Further, the inhibition at 1 µM at ZIKA protease was at least 10%; on DENV protease, at least 20%. The inhibition at 50 µM on ZIKA protease was at least 65%; on DENV protease it was at least 25%; against WNV protease [2], at least 25%. Further, the inhibition at 5 µM is below 5% on human Thrombin and below 10% at human Trypsin. On human Trypsin, the inhibition at 25 µM is below 20%. This molecule came in with a 50% effective concentration (EC50) in the assay with West Nile virus of at most 25 µM.
On to `CCCCCCCCCCCCCCCC(=O)N[C@@H](CCCCN)C(=O)N1CCC[C@H]1C(=O)N[C@@H](C)C(=O)N[C@@H](CCCCN)C(=O)C(N)=O` [compound 10], for which the figures for the IC50 on ZIKA protease and on WNV protease [1] were at most 25 µM and at most 40 µM, respectively. In addition, the inhibition at 50 µM is at least 65% on ZIKA protease (at 50 μM), at least 25% on DENV protease and at least 25% on WNV protease [2]. Further, the results for the inhibition at 5 µM at human Thrombin (at 5 μM) and at human Trypsin (at 5 μM) were below 5% and below 10%, respectively. The same molecule had an EC50 in the assay on West Nile virus of at most 25 µM.
`CCCCCCCCCCCCCCCC(=O)N[C@@H](CCCCN)C(=O)N[C@@H](C)C(=O)N[C@@H](C)C(=O)N[C@@H](Cc1cnc[nH]1)C(N)=O` [compound 168] (Palmitoyl-KAAH-NH2): the 50% inhibitory concentration (IC50) was at most 25 µM against ZIKA protease and at most 40 µM at WNV protease [1]. The inhibition at 1 µM at ZIKA protease (at 1 μM) is at least 10%. Moreover, the inhibition at 50 µM was at least 65% at ZIKA protease (at 50 μM), at least 25% at DENV protease and at least 25% against WNV protease [2]. Further, the inhibition at 5 µM at human Thrombin (at 5 μM) is below 5%; at human Trypsin (at 5 μM), below 10%. In addition, the inhibition at 25 µM at human Trypsin (at 25 μM) is below 20%.
For the molecule `CCCCCCCCCCCCCCCC(=O)N[C@@H](CCCCN)CC(=O)N1CCC[C@H]1C(=O)N[C@@H](C)C(=O)N[C@@H](CCc1ccccc1)C(N)=O` [compound 117] (Palmitoyl-[β3hK]PA[hPhe]-NH2), the IC50 was at most 25 µM at ZIKA protease and at most 40 µM at WNV protease [1]. Besides, at ZIKA protease (at 1 μM), the inhibition at 1 µM was at least 10%. In addition, the inhibition at 50 µM was at least 65% on ZIKA protease (at 50 μM), at least 25% at DENV protease and at least 25% on WNV protease [2]. The figures for the inhibition at 5 µM on human Thrombin (at 5 μM) and at human Trypsin (at 5 μM) were below 5% and below 10%, respectively. The inhibition at 25 µM on human Trypsin (at 25 μM) is below 20%.
The molecule `CCCCCCCCCCCCCCCC(=O)N[C@@H](CCCNC(=N)N)C(=O)N[C@@H](CCC(N)=O)C(=O)N[C@H](Cc1ccccc1)C(N)=O` [compound 49] (Palmitoyl-Arg-Gln-[dF]-NH2) had an IC50 at ZIKA protease of at most 25 µM. The results for the inhibition at 1 µM on ZIKA protease (at 1 μM) and on DENV protease (at 1 μM) were at least 10% and at least 20%, respectively. Moreover, the inhibition at 50 µM at ZIKA protease (at 50 μM) was at least 65%; on DENV protease it was at least 25%. This molecule had an EC50 in the assay with ZIKV of at most 10 µM.
On to `CCCCCCCCCCCCCCCC(=O)N[C@@H](CCCCN)C(=O)N1CCC[C@H]1C(=O)N[C@@H](Cc1cnc[nH]1)C(=O)N[C@@H](CCc1ccccc1)C(N)=O` [compound 11] (Palmitoyl-KPH[hPhe]-NH2), for which the IC50 against ZIKA protease is at most 25 µM; at WNV protease [1] it was at most 40 µM. Also, at ZIKA protease (at 1 μM), the inhibition at 1 µM was at least 10%. In addition, the inhibition at 50 µM at ZIKA protease (at 50 μM) was at least 65%; on DENV protease, at least 25%; at WNV protease [2] it was at least 25%. Besides, the inhibition at 5 µM at human Thrombin (at 5 μM) was below 5%; at human Trypsin (at 5 μM), below 10%. Also, the inhibition at 25 µM on human Trypsin (at 25 μM) is below 20%.
`CCCCCCCCCCCCCCCC(=O)N[C@@H](C)C(=O)N[C@@H](CCCNC(=N)N)C(=O)N[C@@H](CCC(N)=O)C(=O)N[C@@H](Cc1ccccc1)C(N)=O` [compound 54] (Palmitoyl-ARQF-NH2) displayed a concentration for half-maximal inhibition (IC50) at ZIKA protease of at most 25 µM. In addition, the inhibition at 1 µM at ZIKA protease (at 1 μM) is at least 10%. For the same molecule, the figures for the inhibition at 50 µM on ZIKA protease (at 50 μM) and at DENV protease were at least 65% and at least 25%, respectively. Besides, the EC50 in the assay with ZIKV was at most 10 µM; in the assay with West Nile virus it was at most 25 µM.
As for `CCCCCCCCCCCCCCCC(=O)N[C@@H](CCCCN)C(=O)N[C@@H](C)C(=O)N[C@@H](C)C(=O)N[C@H](CCc1ccccc1)C(=O)C(N)=O` [compound 5], the values for the IC50 on ZIKA protease and on WNV protease [1] were at most 25 µM and at most 40 µM, respectively. For the same molecule, the inhibition at 50 µM is at least 65% at ZIKA protease, at least 25% at DENV protease and at least 25% against WNV protease [2]. Also, the figures for the inhibition at 5 µM at human Thrombin and on human Trypsin were below 5% and below 10%, respectively. For the same molecule, the inhibition at 25 µM at human Trypsin was below 20%.
In the case of `CCCCCCCCCCCCCCCC(=O)N[C@@H](CCCCN)C(=O)N[C@@H](C)C(=O)N[C@@H](C)C(=O)N[C@@H](CCCCN)C(=O)C(N)=O` [compound 9], the IC50 was at most 25 µM on ZIKA protease and at most 40 µM at WNV protease [1]. Besides, at ZIKA protease (at 1 μM), the inhibition at 1 µM was at least 10%. Further, the inhibition at 50 µM was at least 65% on ZIKA protease (at 50 μM), at least 25% at DENV protease and at least 25% against WNV protease [2]. At human Thrombin (at 5 μM), the inhibition at 5 µM is below 5%. This molecule also registered an EC50 with West Nile virus of at most 25 µM.
Consider `CCCCCCCCCCCCCCCC(=O)N[C@H](C)C(=O)N1C[C@H](Oc2ccncc2)C[C@H]1C(=O)N[C@H](C)C(=O)N[C@H](CCCCN)C(N)=O` [compound 8], for which the IC50 was at most 25 µM against ZIKA protease and at most 40 µM at WNV protease [1]. The inhibition at 50 µM on ZIKA protease (at 50 μM) is at least 65%; on DENV protease it was at least 25%; at WNV protease [2] it was at least 25%. Also, the inhibition at 5 µM on human Thrombin (at 5 μM) was below 5%; on human Trypsin (at 5 μM), below 10%. Besides, the inhibition at 25 µM on human Trypsin (at 25 μM) was below 20%.
Take `CCCCCCCCCCCCCCCC(=O)N[C@@H](CCCCN)CC(=O)N1CCC[C@H]1C(=O)N[C@@H](C)C(=O)N[C@@H](Cc1ccccc1)C(N)=O` [compound 116] (Palmitoyl-[β3hK]PAF-NH2): the IC50 against ZIKA protease is at most 25 µM; on WNV protease [1], at most 40 µM. For the same molecule, at ZIKA protease (at 1 μM), the inhibition at 1 µM is at least 10%. Moreover, the inhibition at 50 µM was at least 65% on ZIKA protease (at 50 μM), at least 25% on DENV protease and at least 25% against WNV protease [2]. Moreover, the inhibition at 5 µM was below 5% at human Thrombin (at 5 μM) and below 10% on human Trypsin (at 5 μM). On human Trypsin (at 25 μM), the inhibition at 25 µM was below 20%.

One may read the IC50 as the concentration at which inhibition is half-maximal. The inhibition is the relative decrease from the control value, in per cent. The EC50 is the concentration needed to bring the measured effect to its halfway point.
